Assay results as given in patent US20240217954A1, “CRYSTAL FORM IV OF ORGANIC ACID SALTS OF MELANOCORTIN RECEPTOR AGONIST COMPOUND, AND PREPARATION METHOD THEREOF” (LG CHEM, LTD., priority 2021, published 2024).
Where two headings read alike, the source gives them in different places.

Test: Solubility assessment: visual, by final volume of water added until the sample is completely dissolved
Procedure: Solubility indicates the result of measurement based on the final volume of water added to a sample when it is visually confirmed that the sample is completely dissolved by adding water to the sample. The solubility of the actual sample may be higher than the measured solubility. Solubility was measured based on the final volume of water added to a sample when it was visually confirmed that the sample was completely dissolved by adding water to the sample.

[1] = in water, visual complete dissolution, actual solubility may be higher than measured

For CC(O)C(=O)O.CC1CCC(N(C(=O)C(C)C)[C@H]2C[C@@H](C(=O)N3CCOCC3)N(C(=O)[C@@H]3CN(C(C)(C)C)C[C@H]3c3ccc(Cl)cc3)C2)CC1 (stereo partly drawn) [Example 1, N-((3S,5S)-1-((3S,4R)-1-(tert-butyl)-4-(4-chlorophenyl)pyrrolidine-3-carbonyl)-5-(morpholine-4-carbonyl)pyrrolidin-3-yl)-N-((1 s,4R)-4-methylcyclohexyl)isobutyramide lactate], which solubility [1] is on record?
Its solubility is “more than 24 mg/mL”.

With CC(C)C(=O)N([C@H]1C[C@@H](C(=O)N2CCOCC2)N(C(=O)[C@@H]2CN(C(C)(C)C)C[C@H]2c2ccc(Cl)cc2)C1)[C@H]1CC[C@@H](C)CC1.O=S(=O)(O)c1ccccc1 [Example 2, N-((3S,5S)-1-((3S,4R)-1-(tert-butyl)-4-(4-chlorophenyl)pyrrolidine-3-carbonyl)-5-(morpholine-4-carbonyl)pyrrolidin-3-yl)-N-((1 s,4R)-4-methylcyclohexyl)isobutyramide benzene sulfonate] as the compound, how does the solubility [1] read?
Its solubility is “more than 1 mg/mL”.

With CC(C)C(=O)N([C@H]1C[C@@H](C(=O)N2CCOCC2)N(C(=O)[C@@H]2CN(C(C)(C)C)C[C@H]2c2ccc(Cl)cc2)C1)[C@H]1CC[C@@H](C)CC1.Cc1ccc(S(=O)(=O)O)cc1 [Example 3, N-((3S,5S)-1-((3S,4R)-1-(tert-butyl)-4-(4-chlorophenyl)pyrrolidine-3-carbonyl)-5-(morpholine-4-carbonyl)pyrrolidin-3-yl)-N-((1 s,4R)-4-methylcyclohexyl)isobutyramide toluene sulfonate] as the compound, how does the solubility read?
The solubility was “more than 10 mg/mL”.
